Laboratory results from patent publication US7795252B2, “Rapamycin analogues and the uses thereof in the treatment of neurological, proliferative, and inflammatory disorders” (Pfizer Inc., priority 2004, dated 2010).

Tests used:
human CD4+ T cells [1] = test: Anti-CD3/-CD28 stimulation and IL-2 re-stimulation assay; assay type: cell-based
Protocol: (§1) In the following assays, human CD4+ T cells were purified by negative selection from peripheral blood lymphocytes using RosetteSep as per manufacture's instructions (StemCell Technologies, Inc. Vancouver, British Columbia).
Tosyl-activated magnetic microspheres (Dynal, Great Neck, N.Y.) were coated with anti-CD3 Ab (1 μg/10^7 microspheres), and anti-CD28Ab (0.5 μg/10^7 microspheres) as described in Blair et al. J. Immunol., 160:12, 1998. Murine IgG was used to saturate the binding capacity of the microspheres (total protein=5 μg/10^7 microspheres). Protein-coated microspheres were added to purified CD4+ T cells (2×10^6 cells/mL, ratio 1 bead: 1 cell) and activated for 72 hours in RPMI, 10% fetal calf serum, 2 mM glutamine media. Cells were harvested, washed, and cultured overnight in fresh media and re-stimulated with IL-2 as described in Bennett et al., J. Immunol. 170:711, 2003. Briefly, overnight rested cells were recounted, plated (10^5 cells/well) in flat-bottomed 96 well microtiter plates and stimulated with 1 ng/mL human IL-2 (R&D Systems, Minneapolis, Minn.) in the presence of increasing concentrations of compound. Seventy-two hours after culture re-stimulation, plates were pulsed with 1 μCi/well tritiated thymidine and incubated for a 6-16 hour period.

[2] = test system: breast tumor cell line MDA468 (PTEN-mutated); test: cell-based proliferation assay (MTS), MDA468
Protocol: (§2) In this assay, a cell-based proliferation assay was performed to evaluate the compounds of the invention in inhibiting growth of cells including the breast tumor cell line MDA468 (PTEN-mutated) ATCC No. HTB-132 or prostate tumor cell line LNCap (PTEN-mutated) ATCC CRL-1740. • (i) On day one, cells were plated in 96-well culture plates. • (ii) On day two, compounds were added to cells at a predetermined concentration. • (iii) On day five, cell proliferation was measured by standard MTS assay protocol as described in S A O'Toole et al., Cancer Detection and Prevention, 27(1), 2003. Results were recorded by A490 absorbance using a 96-well format platereader. • (iv) The MTS results (A490 units) from compound-treated wells were then calculated as % control growth relative to the control (untreated) wells on the same culture plate.

[3] = test system: Spinal cord neuron cultures; test: spinal cord neuron assay; assay type: cell-based; details: rat E15 spinal cord neurons, compound for 72 h, read-out: EC50 in spinal cord neuron assays
Protocol: Spinal cord neuron cultures were prepared from embryonic day 15 (E15) rat embryos (Sprague-Dawley, Charles River Laboratories, Wilmington, Mass.). The embryos were collected and their spinal cords were removed in ice-cold phosphate-buffered saline (PBS) without Ca^2+ and Mg^2+. Dissected pieces of spinal cord tissue were pooled together and transferred to an enzymatic dissociation media containing 20 IU/mL papain in Earle's balanced salt solution (Worthington Biochemical, Freehold, N.J.) and incubated for 30 minutes at 37° C. After enzymatic dissociation, the papain solution was aspirated and the tissue mechanically triturated with a fire-polished Pasteur pipette in complete media [Neurobasal Medium with B-27 supplement (Gibco, Grand Island, N.Y.), 100 IU/mL penicillin, 100 μg/mL streptomycin, 3.3 μg/mL aphidicolin, 0.5 mM glutamate] containing 2,000 IU/mL DNase and 10-mg/mL ovomucoid protease inhibitor. Single-cell suspensions in complete media were plated on pre-coated poly-L-ornithine/laminin 96-well plates (Becton-Dickinson, Bedford, Mass.) at a density of 1.0×10^4 cells/well. Spinal cord neurons were maintained for 24 h then exposed to vehicle or various concentrations of compound for 72 h.

human CD4+ T cells [4] = test: PMA/ionomycin activation assay; assay type: cell-based; details: CD4+ T cells stimulated with PMA and ionomycin, tritiated thymidine incorporation, read-out: EC50, inhibition of proliferation
Protocol: as §1
Proliferation of the compounds was determined using this assay. CD4+ T cells (5×10^5 cells/well) were plated in flat bottomed 96 well microtiter plates in RPMI, 10% fetal calf serum, 2 mM glutamine media and stimulated with PMA (10 ng/mL) and ionomycin (200 ng/mL) in the presence of increasing concentration of compound. Seventy-two hours after activation, 100 μL of culture media was collected for IL-2 determination, an additional 100 μL fresh media was added to each well and cultures labeled with tritiated thymidine (1 μCi/well) for 6 hours. Cultures were harvested and tritiated thymidine incorporation (count per minute, CPM) assessed using a Trilux (Perkin Elmer, Shelton, Conn.). IL-2 production was determined using an ELISA as per manufacture's instructions (R&D Systems, Minneapolis, Minn.).

[5] = test system: Mesencephalic dopaminergic neuron cultures; test: dopaminergic (3H-dopamine) uptake assay after MPP+ exposure; assay type: cell-based; details: Neuron, rat E15 mesencephalic dopaminergic neurons, read-out: EC50 in dopaminergic uptake assays
Protocol: Mesencephalic dopaminergic neuron cultures were prepared as described in Pong et al., J. Neurochem. 69: 986-994, 1997, which is incorporated herein by reference in its entirety. Embryonic day 15 (E15) rat fetuses were collected and dissected in ice-cold phosphate-buffered saline (PBS). The ventral piece of tissue compromising the mesencephalic dopaminergic region was dissected out. Dissected pieces of tissue were pooled together and transferred to an enzymatic dissociation medium containing 20 IU/mL papain in Earle's balanced salt solution (Worthington Biochemical, Freehold, N.J., USA) and incubated for 60 minutes at 37° C. After enzymatic dissociation, the papain solution was aspirated and the tissue mechanically triturated with a fire-polished glass Pasteur pipette in complete medium (equal volumes of minimum essential medium (MEM) and F-12 nutrient mixture (GibcoBRL) supplemented with 0.1 mg/mL apotransferrin and 2.5 μg/mL insulin) containing 2,000 IU/mL DNase and 10 mg/mL ovomucoid protease inhibitor.
For dopamine uptake experiments, single-cell suspensions in complete media were seeded on poly-L-ornithine and laminin coated 24-well plates. The cultures were maintained for seven days prior to experimentation. Cultures were pretreated with various concentrations of the compound for 24 hours, then exposed to 10 mM MPP+ for 1 hour. Following the 1 hour incubation, media was exchanged three times and fresh compound was added for an additional 48 hours.
After 48 hours growth of mesencephalic dopaminergic neuron cultures following MPP+ exposure, high-affinity 3H-dopamine uptake was performed using a modified method described by Prochiantz et al., Nature 293: 570-572, 1981, which is incorporated herein by reference. Cultures were washed with pre-warmed PBS containing 5.6 mM glucose and 1 mM ascorbic acid. Cultures were then incubated for 15 minutes at 37° C. with 50 nM 3H-dopamine (31 Ci/mmol, DuPont-NEN, Wilmington, Del., USA). The cultures were washed twice with buffer and lysed with 0.5 N NaOH. The lysate was transferred to a scintillation vial containing Ultima Gold scintillation cocktail and radioactivity was determined with a liquid scintillation counter. Alternatively, culture lysates can be washed twice with buffer, incubated for 2 hours at room temperature with Optiphase Supermix scintillation cocktail (Wallac Scintillation Products, Gaithersburg, Md., USA), and radioactivity measured with a liquid scintillation counter.

[6] = test system: Dissociated cortical neuron cultures; test: cortical neuron assay (neurite outgrowth); assay type: cell-based; details: Cortical neurone, rat E15 cortical neurons, compound for 72 hours, read-out: EC50 in cortical neuron assays
Protocol: Dissociated cortical neuron cultures were prepared as previously described (Pong et al., 2001). Briefly, embryonic day 15 rat fetuses were collected and dissected in ice-cold PBS. Dissected cortices were pooled together and transferred to an enzymatic dissociation medium containing papain. After 30 minutes, the tissue was mechanically triturated with a fire-polished glass Pasteur pipette. Single-cell suspensions in complete media were seeded on poly-L-ornithine and laminin coated 96-well plates. After 24 hours, cultures were treated with various concentrations of compound for 72 hours. The cultures were then fixed and stained with an anti-tubulin primary antibody (TUJ-1) and a fluorescent-tagged secondary antibody. Neurite outgrowth was determined by using the Enhanced Neurite Outgrowth (ENO) algorithm with the Cellomics ArrayScan and expressed as average neurite length or total neurite length per cell.

[7] = test system: prostate tumor cell line LNCap (PTEN-mutated); test: cell-based proliferation assay (MTS), LNCap; details: Homo sapiens
Protocol: as §2

- IC50 (human CD4+ T cells [1]; CD4+ T cells activated with anti-CD3/anti-CD28, re-stimulated with 1 ng/mL human IL-2, read-out: IC50, inhibition of IL-2 production): < 1000 nM
- IC50 [2]: < 10 nM
- EC50 [3]: < 1000 nM
- EC50 [5]: < 1000 nM
- IC50 [7]: < 10 nM
Structure (SMILES): CO[C@H]1C[C@@H]2CC[C@@H](C)[C@@](O)(O2)C(=O)C(=O)N2CCCC[C@H]2C(=O)O[C@H]([C@H](C)C[C@@H]2CC[C@@H](O)[C@H](OC)C2)CC(=O)[C@H](C)/C=C(\C)[C@@H](O)[C@@H](OC)C(=O)[C@H](C)C[C@H](C)[C@@H]2C=C[C@H](/C=C/1C)ON2c1ccccc1 [Example 1, 9,27-dihydroxy-3-{2-[4-hydroxy-3-methoxycyclohexyl]-1-methylethyl}-10,21-dimethoxy-6,8,12,14,20,26-hexamethyl-37-phenyl-4,9,10,12,13,14,15,18,21,22,23,24,25,26,27,32,33,34,34a-nonadecahydro-3H-23,27-epoxy-18,15-(epoxyimino)pyrido[2,1-c][1,4]oxazacyclohentriacontine-1,5,11,28,29(6H,31H)-pentone]
- IL-2 production compared with rapamycin and CCI-779 (human CD4+ T cells [1]; CD4+ T cells, IL-2 re-stimulation): commensurate
- EC50 (human CD4+ T cells [4]): 200 to 4900 nM
- EC50 [6]: < 1000 nM
